ChEMBL document CHEMBL5338769, “Discovery of Norisoboldine Analogue III11 as a Novel and Potent Aryl Hydrocarbon Receptor Agonist for the Treatment of Ulcerative Colitis” (J Med Chem, 2023)
Active and inactive are the calls of the source. The rule behind the calls is not given here.

How the values were obtained:
Mus musculus [1] = assay: In vivo activation of AhR in C57BL/6 mouse assessed as increase in CYP1A1 mRNA expression at 100 mg/kg, po administered once a day for 10 days by qRT-PCR analysis; assay type: functional, organism-based; conditions: time 10.0 day
Mus musculus [2] = assay: Anti-colitis activity in DSS-induced ulcerative colitis C57BL/6 mouse model assessed as CD4+CD25+Foxp3+ Treg cell percentage in spleen at 100 mg/kg, po administered once a day for 10 days by flow cytometric analysis (reference value: 3.3%); assay type: functional; conditions: time 10 day
Mus musculus [3] = assay: Anti-colitis activity in DSS-induced ulcerative colitis C57BL/6 mouse model assessed as CD4+CD25+Foxp3+ Treg cell percentage in mesenteric lymph nodes at 100 mg/kg, po administered once a day for 10 days by flow cytometric analysis (reference value: 4.5 %); assay type: functional; conditions: time 10 day
Mus musculus [4] = assay: In vivo activation of AhR in C57BL/6 mouse assessed as increase in CYP1A1 mRNA expression at 40 mg/kg, po administered once a day for 10 days by qRT-PCR analysis; assay type: functional, organism-based; conditions: time 10.0 day
[5] = molecular target: T1, Aryl hydrocarbon receptor (Mus musculus, UniProt P30561); assay: Activation of AhR transcription in C57BL/6 mouse naive T cells assessed as increase in CYP1A1 mRNA expression by measuring fold change at 3 uM by qRT-PCR analysis relative to control; assay type: cell-based; conditions: T-cell, read-out: FC
T1 sequence (P30561 whole entry): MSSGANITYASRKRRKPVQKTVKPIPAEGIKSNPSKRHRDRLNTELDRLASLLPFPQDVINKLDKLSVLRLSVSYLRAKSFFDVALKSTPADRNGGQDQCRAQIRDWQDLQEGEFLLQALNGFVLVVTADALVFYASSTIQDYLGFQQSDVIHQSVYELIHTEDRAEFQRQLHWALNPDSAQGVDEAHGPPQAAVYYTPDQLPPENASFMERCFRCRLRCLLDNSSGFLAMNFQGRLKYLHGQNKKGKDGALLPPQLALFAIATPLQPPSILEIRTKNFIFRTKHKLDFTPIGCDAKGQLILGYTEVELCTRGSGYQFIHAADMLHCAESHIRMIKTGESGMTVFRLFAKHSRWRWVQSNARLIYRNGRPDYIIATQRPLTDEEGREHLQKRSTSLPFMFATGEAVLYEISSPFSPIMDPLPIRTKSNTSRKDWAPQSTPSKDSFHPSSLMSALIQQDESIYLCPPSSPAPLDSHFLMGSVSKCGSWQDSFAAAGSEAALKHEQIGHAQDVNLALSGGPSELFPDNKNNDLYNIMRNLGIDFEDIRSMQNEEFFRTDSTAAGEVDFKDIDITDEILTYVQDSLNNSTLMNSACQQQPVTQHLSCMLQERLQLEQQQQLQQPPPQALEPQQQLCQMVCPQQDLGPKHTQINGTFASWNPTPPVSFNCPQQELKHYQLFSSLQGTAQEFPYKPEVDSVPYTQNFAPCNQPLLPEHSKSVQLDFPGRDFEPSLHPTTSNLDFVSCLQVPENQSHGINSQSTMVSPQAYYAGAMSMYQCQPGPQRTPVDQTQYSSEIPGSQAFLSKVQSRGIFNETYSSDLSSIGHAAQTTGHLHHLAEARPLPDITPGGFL

[6] = Induction of cell differentiation in C57BL/6 mouse naive regulatory T cells assessed as increase in cell frequency at 3 uM incubated for 72 hrs by flow cytometric analysis (reference value: 24.9%); assay type: functional
Mus musculus [7] = assay: Anti-colitis activity in DSS-induced ulcerative colitis C57BL/6 mouse model assessed as CD4+CD25+Foxp3+ Treg cell percentage in spleen at 40 mg/kg, po administered once a day for 10 days by flow cytometric analysis (reference value: 3.3%); assay type: functional; conditions: time 10 day
[8] = Induction of cell differentiation in C57BL/6 mouse naive regulatory T cells assessed as increase in […] mRNA level by measuring fold change at 3 uM incubated for 72 hrs by qRT-PCR analysis; assay type: functional
Mus musculus [9] = assay: Anti-colitis activity against DSS-induced ulcerative colitis C57BL/6 mouse model assessed as decrease in colon MPO activity at 40 mg/kg, po administered once a day for 10 days; assay type: functional, organism-based; conditions: time 10.0 day
[10] = Induction of cell differentiation in C57BL/6 mouse naive regulatory T cells assessed as increase in IL-10 mRNA level by measuring fold change at 3 uM incubated for 72 hrs by qRT-PCR analysis; assay type: functional
Mus musculus [11] = assay: Anti-colitis activity in DSS-induced ulcerative colitis C57BL/6 mouse model assessed as increase in CD4+CD25+Foxp3+ Treg cell ratio in mesenteric lymph nodes at 40 mg/kg, po administered once a day for 10 days by flow cytometric analysis (reference value: 4.5 %); assay type: functional; conditions: time 10 day
EL4 = assay: Cytotoxicity against mouse EL4 cells assessed as inhibition of cell proliferation incubated for 72 hrs by MTT assay; assay type: functional, cell-based; conditions: EL4, 72 h
[12] = Half-life in Sprague-Dawley rat at 30 mg/kg, po measured upto 1440 min by LC-MS/MS analysis; assay type: ADME, organism-based; conditions: in vivo
[13] = Cmax in Sprague-Dawley rat at 3 mg/kg, iv measured at 120 min by LC-MS/MS analysis; assay type: ADME, organism-based; design: time 120 min, dose 3 mg/kg, route iv; conditions: in vivo
[14] = Cmax in Sprague-Dawley rat at 30 mg/kg, po measured at 120 min by LC-MS/MS analysis; assay type: ADME, organism-based; design: dose 30 mg/kg, time 120 min, route po; conditions: in vivo
[15] = Half-life in Sprague-Dawley rat at 3 mg/kg, iv measured upto 1440 min by LC-MS/MS analysis; assay type: ADME, organism-based; conditions: in vivo
Regulatory T cell [16] = assay: Induction of cell differentiation in C57BL/6 mouse naive regulatory T cells assessed as increase in IL-10 mRNA level at 3 uM incubated for 72 hrs by qRT-PCR analysis; assay type: functional, cell-based
[17] = Oral bioavailability in Sprague-Dawley rat at 30 mg/kg measured upto 1440 min by LC-MS/MS analysis; assay type: ADME, organism-based; conditions: in vivo
[18] = Protein binding in rat plasma at 10.67 ug/ml of total concentration measured after 12 hrs by ultrafiltration based HPLC analysis; assay type: ADME, cell-free; conditions: at 10.67 µg/mL, read-out: PPB (converted)
[19] = Apparent oral clearance in Sprague-Dawley rat at 30 mg/kg measured upto 1440 min by LC-MS/MS analysis; assay type: ADME, organism-based; conditions: in vivo, 24 h
[20] = Induction of cell differentiation in C57BL/6 mouse naive regulatory T cells assessed as increase in cell frequency at 10 uM incubated for 72 hrs by flow cytometric analysis (reference value: 24.9%); assay type: functional
Mus musculus [21] = assay: Anti-colitis activity in DSS-induced ulcerative colitis C57BL/6 mouse model assessed as increase in CD4+CD25+Foxp3+ Treg cell ratio in mesenteric lymph nodes at 10 mg/kg, po administered once a day for 10 days by flow cytometric analysis (reference value: 4.5 %); assay type: functional; conditions: time 10 day
[22] = AUC(0 to infinity) in Sprague-Dawley rat at 3 mg/kg, iv measured upto 1440 min by LC-MS/MS analysis; assay type: ADME, organism-based; design: dose 3 mg/kg, time < 1440 min, route iv; conditions: in vivo
Mus musculus [23] = assay: Anti-colitis activity in DSS-induced ulcerative colitis C57BL/6 mouse model assessed as CD4+CD25+Foxp3+ Treg cell percentage in spleen at 20 mg/kg, po administered once a day for 10 days by flow cytometric analysis (reference value: 3.3%); assay type: functional; conditions: time 10 day
Mus musculus [24] = assay: In vivo activation of AhR in C57BL/6 mouse assessed as increase in CYP1A1 mRNA expression at 10 to 20 mg/kg, po administered once a day for 10 days by qRT-PCR analysis; assay type: functional, organism-based; conditions: dose 10-20 mg/kg, time 10.0 day
[25] = Unbound drug concentration in rat plasma at 37.38 ug/ml of total concentration measured after 12 hrs by ultrafiltration based HPLC analysis; assay type: ADME, cell-free; conditions: dose 37.38 µg/ml
[26] = MRT in Sprague-Dawley rat at 3 mg/kg, iv measured upto 1440 min by LC-MS/MS analysis; assay type: ADME, organism-based; conditions: in vivo
Mus musculus [27] = assay: Anti-colitis activity in DSS-induced ulcerative colitis C57BL/6 mouse model assessed as CD4+CD25+Foxp3+ Treg cell percentage in spleen at 10 mg/kg, po administered once a day for 10 days by flow cytometric analysis (reference value: 3.3%); assay type: functional; conditions: time 10 day
[28] = Induction of cell differentiation in C57BL/6 mouse naive regulatory T cells assessed as increase in cell frequency at 1 uM incubated for 72 hrs by flow cytometric analysis (reference value: 24.9%); assay type: functional
[29] = Apparent oral clearance in Sprague-Dawley rat at 3 mg/kg, iv measured upto 1440 min by LC-MS/MS analysis; assay type: ADME, organism-based; conditions: in vivo, 24 h
[30] = molecular target: T1, Aryl hydrocarbon receptor; assay: Activation of AhR transcription in C57BL/6 mouse naive T cells assessed as increase in CYP1A1 mRNA expression at 10 uM measured after 72 hrs by qRT-PCR analysis relative to control; assay type: cell-based; conditions: t cell
Regulatory T cell [31] = assay: Induction of cell differentiation in C57BL/6 mouse naive regulatory T cells at 10 uM incubated for 72 hrs by flow cytometric analysis; assay type: functional, cell-based
[32] = Tmax in Sprague-Dawley rat at 30 mg/kg, po measured upto 1440 min by LC-MS/MS analysis; assay type: ADME, organism-based; conditions: in vivo
[33] = Unbound drug concentration in rat plasma at 20.13 ug/ml of total concentration measured after 12 hrs by ultrafiltration based HPLC analysis; assay type: ADME, cell-free; conditions: dose 20.13 µg/ml
[34] = Induction of cell differentiation in C57BL/6 mouse naive regulatory T cells assessed as increase in cell frequency at 30 uM incubated for 72 hrs by flow cytometric analysis (reference value: 24.9%); assay type: functional
[35] = AUC(0 to infinity) in Sprague-Dawley rat at 30 mg/kg, po measured upto 1440 min by LC-MS/MS analysis; assay type: ADME, organism-based; design: time < 1440 min, dose 30 mg/kg, route po; conditions: in vivo
Regulatory T cell [36] = assay: Induction of cell differentiation in C57BL/6 mouse naive regulatory T cells assessed as increase in […] mRNA level at 3 uM incubated for 72 hrs by qRT-PCR analysis; assay type: functional, cell-based
[37] = Unbound drug concentration in rat plasma at 10.67 ug/ml of total concentration measured after 12 hrs by ultrafiltration based HPLC analysis; assay type: ADME, cell-free; conditions: dose 10.67 µg/ml
Mus musculus [38] = assay: Anti-colitis activity in DSS-induced ulcerative colitis C57BL/6 mouse model assessed as increase in CD4+CD25+Foxp3+ Treg cell ratio in mesenteric lymph nodes at 20 mg/kg, po administered once a day for 10 days by flow cytometric analysis (reference value: 4.5 %); assay type: functional; conditions: time 10 day
[39] = MRT in Sprague-Dawley rat at 30 mg/kg, po measured upto 1440 min by LC-MS/MS analysis; assay type: ADME, organism-based; conditions: in vivo
[40] = molecular target: T1, Aryl hydrocarbon receptor; assay: Activation of AhR transcription in C57BL/6 mouse naive T cells assessed as increase in CYP1A1 mRNA expression by measuring fold change at 10 uM measured after 72 hrs by qRT-PCR analysis relative to control; assay type: cell-based; conditions: T-cell, read-out: FC

Nc1ccc(O)c(C(=O)O)c1 [MESALAMINE]
Activity (Mus musculus [1]): Active | Activity (Mus musculus [2]): 2.6% | Activity (Mus musculus [3]): 4.4%

c1ccc2c(Cc3c[nH]c4ccccc34)c[nH]c2c1 [ARUNDINE]
Activity (Mus musculus [4]): Active | fold induction at 3 µM [5]: 1.9 | Activity [6]: 34.3% | Activity (Mus musculus [7]): 2.7% | fold change (FC) [8]: 2.1 | Activity (Mus musculus [9]): Active | fold change (FC) [10]: 2 | Activity (Mus musculus [11]): 6.8%

COc1cc2c(cc1O)CC1NCCc3cc(OC)c(O)c-2c31 (configuration not stated)
IC50 (EL4): 80 µM | half-life [12]: 23.3 min | Cmax [13]: 0.245 µg/mL | Cmax [14]: 0.0341 µg/mL | half-life [15]: 14.1 min | Activity (Regulatory T cell [16]): inactive | bioavailability [17]: 2.49% | fraction unbound at 12 h, 10.67 ug/ml [18]: 0.488 | CL/F [19]: 0.02 mg/(ng/ml)/min | Activity [20]: 32% | Activity (Mus musculus [21]): 5.6% | AUC(0-inf) [22]: 0.112 µg·h/mL | Activity (Mus musculus [23]): 3.6% | Activity (Mus musculus [24]): Active | Cp(f) [25]: 18.36 µg/mL | Activity [6]: 26.6% | MRT [26]: 20.6 min | Activity (Mus musculus [27]): 3% | Activity [28]: 25.4% | CL/F [29]: 0 mg/(ng/ml)/min | Activity [30]: 208.3% | Activity (Regulatory T cell [31]): Active | Tmax [32]: 16 min | Cp(f) [33]: 10.02 µg/mL | Activity [34]: 37.8% | AUC(0-inf) [35]: 0.0278 µg·h/mL | Activity (Regulatory T cell [36]): inactive | Cp(f) [37]: 5.2 µg/mL | Activity (Mus musculus [38]): 6% | MRT [39]: 42.2 min | fold induction at 10 µM [40]: 2.1
